In patent US11414381B2, “Fluorinated imide salt compound and surfactant” (Mitsubishi Materials Electronic Chemicals Co., Ltd., priority 2018, dated 2022):
One block for each molecule: values may come before it.

How the values were obtained:
[1] = Surface activity: surface tension of aqueous solution, Wilhelmy method; format: physicochemical
Method: (§1) Each of the compounds was mixed with water so that an aqueous solution having a concentration of 1,000 ppm by mass was prepared. By measuring the surface tension of the prepared aqueous solution, the surface activity was evaluated. The surface tension was measured by the Wilhelmy method using an automatic surface tensiometer CBVP-Z manufactured by Kyowa Interface Science Co., LTD. […] Therefore, in Comparative Example 2, the surface tension was measured in the saturated state.

[2] = Stability in water: decomposition rate from 19F-NMR before and after storage; format: physicochemical; settings: stored 20 days at 20° C. to 25° C.
Method: (§2) Each of the compounds was mixed with water so that an aqueous solution having a concentration of 10% by mass was prepared. The prepared aqueous solution was stored for 20 days in a room adjusted to 20° C. to 25° C. By calculating a decomposition rate of the compound from ^19F—NMR spectra of the compound in the aqueous solution that were obtained before and after the storage, the stability in water was evaluated. The decomposition rate was calculated by the following formula. A compound having a decomposition rate of 3% or less was described as “No decomposition”. […] Therefore, in Comparative Example 2, the stability in water was evaluated in the saturated state. Decomposition rate (%)={1-(integration value of ^19F—NMR spectrum after storage/integration value of ^19F—NMR spectrum before storage)}×100

[3] = Dissolution in water when preparing the aqueous test solutions; format: physicochemical
Method: as §1, §2

[4] = according to Japanese Patent No. 4080998; cited from earlier work
[5] = Surface tension-reducing ability, background comparison with PFOA / PFOS; format: physicochemical; settings: study conducted by the inventors

Surface tension ([1]; aqueous solution, concentration 1,000 ppm by mass): 43 mN/m
Compound: O=S(=O)([N-]S(=O)(=O)C(F)(F)C(F)(F)C(F)(F)C(F)(F)F)C(F)(F)C(F)(F)C(F)(F)C(F)(F)F.[K+] [Comparative Example 1, bis(perfluorobutanesulfonyl)imide potassium salt]
Stability in water ([2]; 10% by mass aqueous solution): No decomposition (A compound having a decomposition rate of 3% or less was described as “No decomposition”)

Compound: O=S(=O)([O-])C(F)(F)C(F)(F)C(F)(F)C(F)(F)C(F)(F)C(F)(F)C(F)(F)C(F)(F)F.[K+] [Comparative Example 2, potassium salt of perfluorooctanesulfonic acid (PFOS)]
Dissolution in water ([3]; mixed with water for 10% by mass): formed a saturated aqueous solution without being completely dissolved in water | Dissolution in water ([3]; mixed with water for 1,000 ppm by mass): formed a saturated aqueous solution without being completely dissolved in water | Surface tension ([1]; saturated aqueous solution (not completely dissolved)): 41 (saturated) mN/m | Stability in water ([2]; saturated aqueous solution): No decomposition (A compound having a decomposition rate of 3% or less was described as “No decomposition”)

Surface tension-reducing ability compared to PFOS [5]: lower than that of PFOS
Compound: N.O=S(=O)(NS(=O)(=O)C(F)(F)C(F)(F)C(F)(F)C(F)(F)F)C(F)(F)C(F)(F)C(F)(F)C(F)(F)F [ammonium bis(perfluorobutanesulfonyl)imide]
Ability to reduce surface tension compared to ammonium salt of PFOA [4]: more able to reduce surface tension than the ammonium salt of perfluorooctanoic acid (PFOA)
